These are literature values, as cited in patent US12569571B2, “Salt responsive nanogels and nanoparticles” (HOWARD UNIVERSITY, priority 2016, dated 2026).

The structures appear in SMILES notation.

For this series the following is noted: studies have shown.

Turning to `CNC` [dimethylamine], the “pKa (apparent pKa for PEI)” value is given as “about 10”.
